Experimental data published in patent US11427549B2, “Pyrimidinyloxy benzo-fused compounds as herbicides” (FMC Corporation, priority 2017, dated 2022).

Tests used:
[1] = system: ryegrass, Italian (Italian ryegrass, Lolium multiflorum); experiment: Test A preemergence, ryegrass, Italian; type: in vivo; details: Lolium multiflorum, pre-emergence, 240 h, 0 to 100 scale (0 no effect, 100 complete control), read-out: Plant response rating, Ryegrass, Italian; for pest or weed control at 31 g/ha: 31 g ai/ha; for pest or weed control at 125 g/ha: 125 g ai/ha
kochia (Kochia scoparia) [2] = experiment: Test A postemergence, kochia; type: in vivo; details: Bassia scoparia, post-emergence, 240 h, 0 to 100 scale (0 no effect, 100 complete control), read-out: Plant response rating, Kochia; for pest or weed control at 31 g/ha: 31 g ai/ha; for pest or weed control at 125 g/ha: 125 g ai/ha
[3] = system: barnyardgrass (Echinochloa crus-galli); experiment: Test B flooded paddy test, barnyardgrass; details: Echinochloa crus-galli, read-out: Plant response rating, Barnyardgrass (0 to 100 scale, 0 is no effect, 100 is complete control)
rice (Oryza sativa) = experiment: Test B flooded paddy test, rice; details: Oryza sativa, read-out: Plant response rating, Rice (0 to 100 scale, 0 is no effect, 100 is complete control)
[4] = system: ragweed (common ragweed, Ambrosia elatior); experiment: Test A preemergence, ragweed; type: in vivo; details: Ambrosia artemisiifolia, pre-emergence, 240 h, 0 to 100 scale (0 no effect, 100 complete control), read-out: Plant response rating, Ragweed; for pest or weed control at 31 g/ha: 31 g ai/ha; for pest or weed control at 125 g/ha: 125 g ai/ha
[5] = system: wheat (Triticum aestivum); experiment: Test A postemergence, wheat; type: in vivo; details: Triticum aestivum, post-emergence, 240 h, 0 to 100 scale (0 no effect, 100 complete control), read-out: Plant response rating, Wheat; for plant injury at 31 g/ha: 31 g ai/ha; for plant injury at 125 g/ha: 125 g ai/ha
[6] = system: blackgrass (Alopecurus myosuroides); experiment: Test A postemergence, blackgrass; type: in vivo; details: Alopecurus myosuroides, post-emergence, 240 h, 0 to 100 scale (0 no effect, 100 complete control), read-out: Plant response rating, Blackgrass; for pest or weed control at 31 g/ha: 31 g ai/ha; for pest or weed control at 125 g/ha: 125 g ai/ha
[7] = system: foxtail, giant (giant foxtail, Setaria faberii); experiment: Test A preemergence, foxtail, giant; type: in vivo; details: Setaria faberi, pre-emergence, 240 h, 0 to 100 scale (0 no effect, 100 complete control), read-out: Plant response rating, Foxtail, Giant; for pest or weed control at 31 g/ha: 31 g ai/ha; for pest or weed control at 125 g/ha: 125 g ai/ha
[8] = system: pigweed (Amaranthus retroflexus); experiment: Test A preemergence, pigweed; type: in vivo; details: Amaranthus retroflexus, pre-emergence, 240 h, 0 to 100 scale (0 no effect, 100 complete control), read-out: Plant response rating, Pigweed; for pest or weed control at 31 g/ha: 31 g ai/ha; for pest or weed control at 125 g/ha: 125 g ai/ha
[9] = system: galium (catchweed bedstraw, Galium aparine); experiment: Test A postemergence, galium; type: in vivo; details: Galium, post-emergence, 240 h, 0 to 100 scale (0 no effect, 100 complete control), read-out: Plant response rating, Galium; for pest or weed control at 31 g/ha: 31 g ai/ha; for pest or weed control at 125 g/ha: 125 g ai/ha
[10] = system: ducksalad (Heteranthera limosa); experiment: Test B flooded paddy test, ducksalad; details: Heteranthera limosa, read-out: Plant response rating, Ducksalad (0 to 100 scale, 0 is no effect, 100 is complete control)
[11] = system: barnyardgrass (Echinochloa crus-galli); experiment: Test A postemergence, barnyardgrass; type: in vivo; details: Echinochloa crus-galli, post-emergence, 240 h, 0 to 100 scale (0 no effect, 100 complete control), read-out: Plant response rating, Barnyardgrass; for pest or weed control at 31 g/ha: 31 g ai/ha; for pest or weed control at 125 g/ha: 125 g ai/ha
kochia (Kochia scoparia) [12] = experiment: Test A preemergence, kochia; type: in vivo; details: Bassia scoparia, pre-emergence, 240 h, 0 to 100 scale (0 no effect, 100 complete control), read-out: Plant response rating, Kochia; for pest or weed control at 31 g/ha: 31 g ai/ha; for pest or weed control at 125 g/ha: 125 g ai/ha
[13] = system: ragweed (common ragweed, Ambrosia elatior); experiment: Test A postemergence, ragweed; type: in vivo; details: Ambrosia artemisiifolia, post-emergence, 240 h, 0 to 100 scale (0 no effect, 100 complete control), read-out: Plant response rating, Ragweed; for pest or weed control at 31 g/ha: 31 g ai/ha; for pest or weed control at 125 g/ha: 125 g ai/ha
[14] = system: pigweed (Amaranthus retroflexus); experiment: Test A postemergence, pigweed; type: in vivo; details: Amaranthus retroflexus, post-emergence, 240 h, 0 to 100 scale (0 no effect, 100 complete control), read-out: Plant response rating, Pigweed; for pest or weed control at 31 g/ha: 31 g ai/ha; for pest or weed control at 125 g/ha: 125 g ai/ha
[15] = system: ryegrass, Italian (Italian ryegrass, Lolium multiflorum); experiment: Test A postemergence, ryegrass, Italian; type: in vivo; details: Lolium multiflorum, post-emergence, 240 h, 0 to 100 scale (0 no effect, 100 complete control), read-out: Plant response rating, Ryegrass, Italian; for pest or weed control at 31 g/ha: 31 g ai/ha; for pest or weed control at 125 g/ha: 125 g ai/ha
[16] = system: barnyardgrass (Echinochloa crus-galli); experiment: Test A preemergence, barnyardgrass; type: in vivo; details: Echinochloa crus-galli, pre-emergence, 240 h, 0 to 100 scale (0 no effect, 100 complete control), read-out: Plant response rating, Barnyardgrass; for pest or weed control at 31 g/ha: 31 g ai/ha; for pest or weed control at 125 g/ha: 125 g ai/ha
corn (Zea mays) = experiment: Test A postemergence, corn; type: in vivo; details: Zea mays, post-emergence, 240 h, 0 to 100 scale (0 no effect, 100 complete control); for Corn plant response rating (crop injury, 0 = no effect, 100 = complete kill) at 31 g/ha: 31 g ai/ha; for Corn plant response rating (crop injury, 0 = no effect, 100 = complete kill) at 125 g/ha: 125 g ai/ha

SMILES: O=C1Cc2cccc(Oc3ncc(Cl)cn3)c2C(CCC(F)(F)F)O1 (stereo not drawn) [Compound 28, 8-[(5-Chloro-2-pyrimidinyl)oxy]-1,4-dihydro-1-(3,3,3-trifluoropropyl)-3H-2-benzopyran-3-one]
- pest or weed control at 31 g/ha [1]: 0%
- pest or weed control at 125 g/ha [1]: 10%
- pest or weed control at 31 g/ha (kochia (Kochia scoparia) [2]): 20%
- pest or weed control at 125 g/ha (kochia (Kochia scoparia) [2]): 70%
- pest or weed control at 250 g/ha [3]: 0%
- plant injury at 250 g/ha (rice (Oryza sativa)): 0%
- pest or weed control at 31 g/ha [4]: 0%
- pest or weed control at 125 g/ha [4]: 0%
- plant injury at 31 g/ha [5]: 0%
- plant injury at 125 g/ha [5]: 0%
- pest or weed control at 31 g/ha [6]: 10%
- pest or weed control at 125 g/ha [6]: 60%
- pest or weed control at 31 g/ha [7]: 10%
- pest or weed control at 125 g/ha [7]: 100%
- pest or weed control at 31 g/ha [8]: 10%
- pest or weed control at 125 g/ha [8]: 100%
- pest or weed control at 31 g/ha [9]: 20%
- pest or weed control at 125 g/ha [9]: 60%
- pest or weed control at 250 g/ha [10]: 0%
- pest or weed control at 31 g/ha [11]: 0%
- pest or weed control at 125 g/ha [11]: 10%
- pest or weed control at 31 g/ha (kochia (Kochia scoparia) [12]): 0%
- pest or weed control at 125 g/ha (kochia (Kochia scoparia) [12]): 50%
- pest or weed control at 31 g/ha [13]: 10%
- pest or weed control at 125 g/ha [13]: 20%
- pest or weed control at 31 g/ha [14]: 30%
- pest or weed control at 125 g/ha [14]: 70%
- pest or weed control at 31 g/ha [15]: 0%
- pest or weed control at 125 g/ha [15]: 0%
- pest or weed control at 31 g/ha [16]: 0%
- pest or weed control at 125 g/ha [16]: 60%
- Corn plant response rating (crop injury, 0 = no effect, 100 = complete kill) at 31 g/ha (corn (Zea mays)): 10%
- Corn plant response rating (crop injury, 0 = no effect, 100 = complete kill) at 125 g/ha (corn (Zea mays)): 20%

SMILES: O=C1OC(CCCCC(F)(F)F)Cc2c(Oc3ncc(Cl)cn3)cccc21 (stereo not drawn) [Compound 31, 5-[(5-Chloro-2-pyrimidinyl)oxy]-3,4-dihydro-3-(5,5,5-trifluoropentyl)-1H-2-benzopyran-1-one]
- pest or weed control at 31 g/ha [1]: 0%
- pest or weed control at 125 g/ha [1]: 0%
- pest or weed control at 31 g/ha (kochia (Kochia scoparia) [2]): 10%
- pest or weed control at 125 g/ha (kochia (Kochia scoparia) [2]): 40%
- pest or weed control at 250 g/ha [3]: 0%
- plant injury at 250 g/ha (rice (Oryza sativa)): 0%
- pest or weed control at 31 g/ha [4]: 0%
- pest or weed control at 125 g/ha [4]: 0%
- plant injury at 31 g/ha [5]: 0%
- plant injury at 125 g/ha [5]: 0%
- pest or weed control at 31 g/ha [6]: 0%
- pest or weed control at 125 g/ha [6]: 0%
- pest or weed control at 31 g/ha [7]: 0%
- pest or weed control at 125 g/ha [7]: 0%
- pest or weed control at 31 g/ha [8]: 0%
- pest or weed control at 125 g/ha [8]: 0%
- pest or weed control at 31 g/ha [9]: 0%
- pest or weed control at 125 g/ha [9]: 30%
- pest or weed control at 250 g/ha [10]: 0%
- pest or weed control at 31 g/ha [11]: 20%
- pest or weed control at 125 g/ha [11]: 0%
- pest or weed control at 31 g/ha (kochia (Kochia scoparia) [12]): 0%
- pest or weed control at 125 g/ha (kochia (Kochia scoparia) [12]): 0%
- pest or weed control at 31 g/ha [13]: 0%
- pest or weed control at 125 g/ha [13]: 0%
- pest or weed control at 31 g/ha [14]: 40%
- pest or weed control at 125 g/ha [14]: 50%
- pest or weed control at 31 g/ha [15]: 0%
- pest or weed control at 125 g/ha [15]: 0%
- pest or weed control at 31 g/ha [16]: 0%
- pest or weed control at 125 g/ha [16]: 0%
- Corn plant response rating (crop injury, 0 = no effect, 100 = complete kill) at 31 g/ha (corn (Zea mays)): 0%
- Corn plant response rating (crop injury, 0 = no effect, 100 = complete kill) at 125 g/ha (corn (Zea mays)): 10%
